Measured values: PMC8235719, “New RAD51 Inhibitors to Target Homologous Recombination in Human Cells” (Genes, 2021)
Entries after “also recorded” stand apart in the source; their conditions may differ.

Columns and labels:
Assay type in all cases: cell-based, human
[1] = tested on: MCF 10A cells; test: Cell viability assay (Guava ViaCount flow cytometry), MCF 10A
Method: For all cell viability experiments, except experiments involving MMS treatment, cells were seeded into the media containing indicated concentrations of tested compounds or corresponding amounts of DMSO in controls. The concentration of DMSO in media was 0.1%. MDA-MB-231 cells were seeded into 24-well plates at 3.5 × 10^4 cells/well for cells for a 4-day treatment or at 5000 cells/well for a 10-day treatment. MCF 10A cells were seeded into 24-well plates at 1.5 × 10^4 cells/well for a 4-day treatment or at 500 cells/well for a 10-day treatment. In the case of 10-day treatments, the media with compounds were renewed twice on the 4th and the 7th days of treatments. After completion of the treatments, cells were harvested, and their viability was determined by flow cytometry with Guava ViaCount reagent (Luminex; Austin, TX USA). Data were analyzed using the Guava ViaCount software (Millipore; Burlington, VT, USA). The IC50 values were calculated using the GraphPad Prism 5 software (San Diego, CA, USA).

[2] = tested on: MDA-MB-231 cells; test: Cell viability of MDA-MB-231 after 1 h MMS treatment; details: MDA-MB-231, 100 µM MMS 1 h
Method: For experiments in which MDA-MB-231 cells were treated with MMS, cells were seeded in 24-well plates at 3.5 × 10^4 cells/well. The next day, cells were treated with 100 µM MMS (Sigma, St. Louis, MO, USA) for 1 h in the presence of increasing concentrations of olaparib and 2 µM B02-iso where indicated. Then, cells were washed twice with PBS, which was followed by incubation with olaparib at indicated concentrations and 2 µM B02-iso where indicated for 4 days. After completion of the treatments, cells were harvested, and their viability was determined by flow cytometry using Guava ViaCount reagent (Luminex; Austin, TX, USA). Data were analyzed using the Guava ViaCount software (Millipore; Burlington, VT, USA).

[3] = tested on: RAD51 expression in U-2 OS IndDR-GFP cells; test: RAD51 expression level by Western blotting; details: 4 µM, 24 h
Method: Protein concentrations in the nuclear and whole-cell extracts were determined by Bradford assay (Bio-Rad), and the equivalent protein amounts were subjected to electrophoresis in 12% SDS-Polyacrylamide gels (29:1) in Tris-Glycine-SDS buffer. After gel-electrophoresis, proteins were transferred to PVDF membranes (Amersham, Piscataway, NJ, USA) using Mini Trans-Blot Cell (BioRad, Hercules, CA, USA) at 80V for 40 min. PVDF membranes were washed in TBS and blocked with a blocking buffer (5% nonfat dry milk in TBS-T) for 1 h. Anti-RAD51 rabbit polyclonal antibody (1:1000, GeneTex, GTX100469), anti-FKBP12 monoclonal mouse antibody (1:100, BD Biosciences; Franklin lakes, NJ, USA, 610808) for the detection of ddSceGR, and anti-nucleolin mouse monoclonal antibody (1:1000, Santa Cruz Biotechnology; Dallas, Texas, sc-17826) were applied overnight in a blocking buffer at 4 °C. […] Signal was detected with SuperSignal West Pico Plus chemiluminescent substrate (Thermo Scientific; Waltham, […], USA) with a G:B0X6 imaging system (Syngene; Bangalore, India). Band intensities were quantified with the GeneTools software (Syngene; Bangalore, India).
IndDR-GFP cells. […] 10 µg of protein lysates were loaded and analyzed by SDS-PAGE. […]

[4] = tested on: MCF 10A cells; test: EdU cell proliferation assay, MCF 10A; details: 24 h
Method: Exponentially growing MDA-MB-231 and MCF 10A cells were seeded into 6-well plates at a density of 1.5 × 10^5 cells/well in the presence of indicated concentrations of B02-iso or 0.1% DMSO (for control cells). After 24 h of incubation, cells were labeled with 10 µM Edu (Invitrogen; Waltham, […], USA) for 1 h or left unlabeled in the control. Cells were harvested and centrifuged at 500× g, 4 °C for 5 min, and cell pellets were washed with PBS supplemented with 1% BSA, spun down, and fixed with 4% methanol-free formaldehyde (Pierce) in PBS for 15 min. Cells were washed with PBS containing 1% BSA, centrifuged 500× g for 5 min. Cell pellets were resuspended in PBS containing 0.1% Triton X-100 and incubated for 15 min for permeabilization. Cells were spun down, resuspended in freshly prepared Edu click labeling solution (1 mM CuSO4, 1.25 µM Alexa Fluor 488 Azide (Invitrogen; Waltham, […], USA), 50 mM ascorbic acid in PBS) and incubated for 30 min in the dark. Cells were washed twice with PBS containing 0.1% Triton X-100, resuspended in the same buffer, and analyzed for Edu incorporation by flow cytometry using the Guava easyCyte system (Millipore; Burlington, VT, USA) with the InCyte software (Millipore; Burlington, VT, USA).

[5] = tested on: MCF 10A cells; test: Cell cycle analysis (propidium iodide flow cytometry); details: 24 h
Method: Exponentially growing MDA-MB-231 and MCF 10A cells were seeded into 6-well plates at a density of 1.5 × 10^5 cells/well in the presence of indicated concentrations of B02-iso or 0.01% DMSO (for control cells). After 24 h of incubation, cells were harvested, placed on ice, and washed once with cold PBS. Cells were counted with an automated cell counter (Bio-Rad; Hercules, CA, USA), and 1 × 10^5 cells from each sample were taken for further analysis. Cells were resuspended in PBS, and then cold, absolute ethanol was added dropwise to a cell suspension to reach a final concentration of 70%, followed by incubation on ice for 1 h. Cells were washed in PBS, resuspended in staining buffer (50 µg/mL propidium iodide, 100 µg/mL RNase A, 0.1% Triton X-100 in PBS) and incubated for 15 min in the dark at 37 °C. Cells were analyzed for DNA content by flow cytometry using the Guava easyCyte system (Millipore; Burlington, VT, USA) with the InCyte software (Millipore; Burlington, VT, USA).

## O=c1nc(/C=C/c2cccnc2)n(Cc2ccccc2)c2ccccc12 [B02-iso]
[1]; 4-day treatment, ratio of IC50
  Times lower sensitivity of MCF 10A compared with MDA-MB-231: approximately 3
[1]; Homo sapiens, 96 h, MCF 10A, 4-day treatment
  IC50: 11.9 µM
[1]; MCF 10A, 1.8 µM B02-iso, same range of olaparib concentrations, 10-day treatment
  Effect on cell viability in combination with olaparib: did not decrease cell viability
[2]; 4-day treatment
  Sensitization of cells to B02-iso by MMS in the absence of olaparib: did not sensitize
[2]; olaparib, 2 µM B02-iso, 4 days
  Effect on cell killing by MMS plus olaparib: further significantly increased
[3]
  RAD51 expression level: does not change the RAD51 expression level; also recorded: did not change RAD51 expression level
[4]; 4 µM
  Fraction of DNA-replicating cells (EdU): dropped approximately two-fold
[4]; 8 µM
  Fraction of DNA-replicating cells (EdU): abolished almost entirely
[5]
  Cell cycle effect: prominent G1 arrest
